Laboratory results reported in patent US20220323468A1, “REDUCED NICOTINAMIDERIBOSIDES FOR THE TREATMENT/PREVENTION OF LIVER DISEASE” (SOCIETE DES PRODUITS NESTLE S.A., priority 2019, published 2022).
“Also recorded” adds a separate entry of the source. Structures can show the parent of a compound that is named as a salt. Where two headings read alike, the source gives them in different places.

Assays:
[1] = Intrahepatic and hepatic mitochondrial NAD+ after IP injection in mice; format: in vivo; details: NR 500 mg/kg or equimolar amounts, 1 hour later; for hepatic mitochondrial NAD+ levels: isolated liver mitochondria
Method: 10 week old male mice were fasted for 2 hours prior to intraperitoneal injection (IP) with saline as control/vehicle, nicotinamide riboside (NR; 500 mg/kg) or equimolar amounts of dihydronicotinamide riboside (NRH) or nicotinamide (NAM). Then, 1 hour later, mice were euthanized and a piece of liver was snap frozen while another piece was used for mitochondrial isolation following a published procedure (Frezza et al., 2007; Nature Protocols). The piece of snap frozen liver was weighted and submitted to acidic extraction to evaluate NAD+ levels through enzymatic methods. For isolated mitochondria, protein was quantified and 200 micrograms of protein were used for acidic extraction and NAD+ measurement through enzymatic methods. […] All results are mean+/− SEM of n=4 animals per group. * indicates statistical difference at p<0.05 vs. control/vehicle group.

NMNAT = test: NRH-induced NAD+ synthesis with NMNAT inhibitor gallotannin; format: cell-based
From the text: As a follow-up step, NMNAT enzymes could catalyze the transition from NMNH to NADH.

adenosine kinase (AK) = molecular target: T1, adenosine kinase (AK) (Mus musculus, UniProt P55264); test: NRH-induced NAD+ synthesis with adenosine kinase inhibitors; format: cell-based; set-up: effect of AK inhibitor on NRH action (NAD+ synthesis): dose or concentration left out as unconfirmed; details: for effect of AK inhibitor on NRH action (NAD+ synthesis): AML12 cells, inhibitor (5-IT) 1 hour prior to NRH, NAD+ measured 1 hour later
T1 construct: endogenous in cells; host or cells: AML12 cells
T1 sequence (P55264 whole entry): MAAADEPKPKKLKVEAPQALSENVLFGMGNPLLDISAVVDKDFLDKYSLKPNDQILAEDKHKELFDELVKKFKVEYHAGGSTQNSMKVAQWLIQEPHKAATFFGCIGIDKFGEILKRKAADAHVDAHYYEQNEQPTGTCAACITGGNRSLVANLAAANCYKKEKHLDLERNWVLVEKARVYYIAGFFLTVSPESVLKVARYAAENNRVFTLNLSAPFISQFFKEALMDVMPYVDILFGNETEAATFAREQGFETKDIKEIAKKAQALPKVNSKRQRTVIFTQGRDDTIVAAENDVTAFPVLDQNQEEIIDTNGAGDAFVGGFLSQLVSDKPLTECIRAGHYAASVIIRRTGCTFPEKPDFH
Method: AML12 cells were treated with an adenosine kinase inhibitor (5-IT; […]) for 1 hour prior to NRH treatment at the doses indicated. Then, 1 hour later, acidic extracts were obtained to measure NAD^+ levels.

[2] = Stability in isolated mouse plasma; format: in vitro ADME; details: for compound levels in plasma / generation of NAM in plasma: spiked in isolated mouse plasma, 2 h of incubation
From the text: (§1) NR degradation to NAM has been proposed as a limitation for its pharmacological efficacy. To evaluate whether NRH was also susceptible to degradation to NAM, we spiked NRH or NR in isolated mouse plasma. […] We also tested the stability of NRH in other matrixes.

[3] = Plasma NRH, NR and NAM after oral administration in mice; format: in vivo
Method: (§2) 8 week-old C57BI/6NTac mice were orally gavaged with either saline (as vehicle), NR (500 mg/kg) or NRH (500 mg/kg). After 1 hour, liver, skeletal muscle and kidney NAD^+ levels were evaluated. All results are expressed as mean+/− SEM of n=5 mice per group. * indicates statistical difference at p<0.05 vs. vs. saline-treated mice. # indicates statistical difference at p<0.05 vs. NR treated mice.
(§3) Levels of NRH and other NAD-related metabolites in biological samples were obtained by using a cold liquid-liquid extraction using a mixture of methanol:water:chloroform in 5:3:5 (v/v), from which the polar phase was recovered for hydrophilic interaction ultra-high performance liquid chromatography mass spectrometry (UHPLC-MS) analysis. The UHPLC consisted of a binary pump, a cooled autosampler, and a column oven (DIONEX Ultimate 3000 UHPLC+ Focused, Thermo Scientific), connected to a triple quadrupole spectrometer (TSQ Vantage, Thermo Scientific) equipped with a heated electrospray ionisation (H-ESI) source. Of each sample, 2 μL were injected into the analytical column (2.1 mm×150 mm, 5 μm pore size, 200 Å HILICON iHILIC®-Fusion(P)), guarded by a pre-column (2.1 mm×20 mm, 200 Å HILICON iHILIC®-Fusion(P) Guard Kit) operating at 35° C. The mobile phase (10 mM ammonium acetate at pH 9, A, and acetonitrile, B) was pumped at 0.25 mL/min flow rate over a linear gradient of decreasing organic solvent (0.5-16 min, 90-25% B), followed by re-equilibration for a total run time of 30 min. The MS operated in positive mode at 3500 V with multiple reaction monitoring (MRM). The software Xcalibur v4.1.31.9 (Thermo Scientific) was used for instrument control, data acquisition and processing. Retention time and mass detection was confirmed by authentic standards.
(§4) Oral administration of NRH led to very similar results to those observed after IP administration. […] NRH was detectable in plasma 1 h after oral administration. In contrast, NR levels were undetectable at 1 h after NR administration.

[4] = tested on: primary hepatocytes from NRK1 knockout (NRK1KO) mice; test: NAD+ levels in primary hepatocytes from control or NRK1 knockout mice; format: cell-based; details: after 1 hour of treatment
From the text: (§5) The action of NRH was also NAMPT-independent, based on experiments using FK866, a NAMPT inhibitor. If NRH led to NAD+ synthesis via the formation of NMNH, this hypothetical path would require the phosphorylation of NRH into NMNH. Given the essential and rate-limiting role of NRK1 in NR phosphorylation, we wondered whether the ability of NRH to boost NAD+ levels was NRK1 dependent. To answer this question, we evaluated NRH action in primary hepatocytes from either control or NRK1 knockout (NRK1KO) mice. […] Further, they rule out the possibility that NRH-induced NAD+ […] is driven by NRH oxidation into NR.

[5] = Tissue NAD+ levels after IP injection in mice; format: in vivo; details: IP 500 mg/kg, after 1 h
Method: (§6) The above results prompted us to test whether NRH could act as an effective NAD+ precursor in vivo. For this, we first intraperitoneally (IP) injected mice with either NR or NRH (500 mg/kg).

[6] = Stability in FBS supplemented media
From the text: as §1

[7] = Circulating NAM, NRH and NR after IP injection in mice; format: in vivo; details: for NAM levels in circulation: mice, IP 500 mg/kg
From the text: as §3, §6

[8] = set-up: species or system mice; details: mouse, in vivo, 250 mg/kg
Method: 8 week-old C57Bl/6NTac mice were orally gavaged with either saline (as vehicle), and NRH (250 mg/kg). After 2 hours, liver, skeletal muscle and kidney NRH levels were evaluated. All results are expressed as mean+/− SEM of n=4 mice per group, as areas under the signal by LC-MS analysis, corrected by total protein amount of tissue.
as §3

INS1-cells = test: NAD+ levels in INS1-cells after NRH treatment; format: cell-based
Stability in water = format: physicochemical; details: pH=7, at room temperature, 48 h
From the text: as §1

3T3 fibroblasts = test: NAD+ levels in 3T3 fibroblasts after NRH treatment; format: cell-based
[9] = tested on: equilibrative nucleoside transporters (ENTs); test: NRH-induced NAD+ synthesis under ENT blockage; format: cell-based; details: in the presence of S-(4-nitrobenzyl)-6-thioinosine (NBTI)
From the text: In order to understand the exact path by which NRH synthesizes NAD+, we initially evaluated whether NRH, could be transported into the cell by equilibrative nucleoside transporters (ENTs).

[10] = Hepatic NAD+ levels after oral administration in mice; format: in vivo; details: compared with NR
Method: as §2, §4

NAMPT = molecular target: T2, NAMPT (Mus musculus, UniProt Q99KQ4); test: NRH-induced NAD+ synthesis with NAMPT inhibitor FK866; format: cell-based; details: experiments using FK866, a NAMPT inhibitor
T2 construct: endogenous in cells
T2 sequence (Q99KQ4 whole entry): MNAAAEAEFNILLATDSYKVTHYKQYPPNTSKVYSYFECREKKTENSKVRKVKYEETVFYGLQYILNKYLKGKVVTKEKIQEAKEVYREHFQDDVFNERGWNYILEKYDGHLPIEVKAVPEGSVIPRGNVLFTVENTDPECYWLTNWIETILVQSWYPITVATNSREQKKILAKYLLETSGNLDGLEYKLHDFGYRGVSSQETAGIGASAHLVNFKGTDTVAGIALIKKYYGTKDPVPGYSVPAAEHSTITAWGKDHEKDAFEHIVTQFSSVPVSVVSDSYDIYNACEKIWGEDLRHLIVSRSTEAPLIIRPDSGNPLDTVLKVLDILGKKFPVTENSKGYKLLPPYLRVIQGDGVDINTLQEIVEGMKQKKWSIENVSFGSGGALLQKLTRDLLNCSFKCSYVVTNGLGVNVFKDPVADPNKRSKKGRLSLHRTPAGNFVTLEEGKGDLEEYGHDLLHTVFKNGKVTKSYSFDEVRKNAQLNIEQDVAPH
From the text: as §5

C2C12 myotubes = test: NAD+ levels in C2C12 myotubes after NRH treatment; format: cell-based
[11] = tested on: intracellular NRH, NMNH, NR and NMN; test: Intracellular NAD+ related metabolites after treatment (UHPLC-MS); format: cell-based
From the text: as §3, with “standards. […]” for “standards.”

AML12 hepatocytes = test: Intracellular NAD+ levels in AML12 hepatocytes (dose-response and time course); format: cell-based
Method: Even at such relatively low dose, NRH achieved similar increases in intracellular NAD+ levels to those reached with NR at 50-fold higher concentrations. NRH achieved maximal effects on NAD+ synthesis around the millimolar range, managing to increase intracellular NAD+ levels by more than 10-fold.
NRH actions were also extremely fast (FIG. 3), as significant increases in NAD+ levels were observed within 5 minutes after NRH treatment.

NC(=O)c1cccnc1 [NAM, nicotinamide]
intrahepatic NAD+ [1]: increase intrahepatic NAD+
hepatic mitochondrial NAD+ levels [1]: only NRH increases mitochondrial NAD+ levels

O=C(OC[C@H]1O[C@@H](OC(=O)c2cc(O)c(O)c(OC(=O)c3cc(O)c(O)c(O)c3)c2)[C@H](OC(=O)c2cc(O)c(O)c(OC(=O)c3cc(O)c(O)c(O)c3)c2)[C@@H](OC(=O)c2cc(O)c(O)c(OC(=O)c3cc(O)c(O)c(O)c3)c2)[C@@H]1OC(=O)c1cc(O)c(O)c(OC(=O)c2cc(O)c(O)c(O)c2)c1)c1cc(O)c(O)c(OC(=O)c2cc(O)c(O)c(O)c2)c1 [gallotannin]
effect of NMNAT inhibitor on NAD+ synthesis after NRH treatment (NMNAT): largely compromised NAD+ synthesis
effect of NMNAT inhibitor on NRH action (NMNAT; NRH at maximal doses (0.5 mM)): part of the NRH action remained
effect of NMNAT inhibitor on NRH action (NMNAT; NRH at submaximal doses): totally blocked

Nc1ncnc2nc(-c3ccc(N4CCOCC4)nc3)cc(-c3cccc(Br)c3)c12 [ABT-702]
effect of AK inhibitor on NRH action (NAD+ synthesis) (adenosine kinase (AK)): confirmed

NC(=O)c1ccc[n+]([C@@H]2O[C@H](CO)[C@H](O)C2O)c1 (stereo partly drawn) [NR, 1-b-D-ribofuranosyl-3-pyridinecarboxamide salt, reference compound]
intrahepatic NAD+ [1]: increase intrahepatic NAD+
hepatic mitochondrial NAD+ levels [1]: only NRH increases mitochondrial NAD+ levels
compound levels in plasma [2]: decayed
generation of NAM in plasma [2]: increase in NAM
circulating NAM relative to that after NRH treatment ([3]; C57BI/6NTac, mouse, in vivo, po, 1 h): ~4 fold
administered compound in plasma ([3]; mouse, in vivo, po): undetectable
circulating NAM ([3]; mouse, in vivo, po): large increases
NAD+ levels in NRK1KO derived primary hepatocytes [4]: failed to increase NAD+ levels
NAD+ levels in kidney [5]: increased NAD+ levels
NAD+ levels in liver [5]: increased NAD+ levels
NAD+ levels in muscle [5]: increased NAD+ levels
degradation to NAM ([6]; FBS supplemented media): as occurs with NR
NAM levels in circulation [7]: highly increased

Nc1ncnc2c1c(I)cn2[C@@H]1O[C@H](CO)[C@@H](O)[C@H]1O [5-IT, 5-iodotubercidin]
effect of AK inhibitor on NRH action (NAD+ synthesis) (adenosine kinase (AK)): fully ablated the action of NRH
formation of NR and NMN after NRH treatment (adenosine kinase (AK); with 5-IT treatment): prevented the formation of NR and NMN

NC(=O)C1=CN([C@@H]2O[C@H](CO)[C@@H](O)[C@H]2O)C=CC1 [NRH]
NRH in kidney [8]: found intact, in high levels
NRH in liver [8]: found intact, in high levels
NRH in muscle [8]: found intact, in high levels
NAD+ levels (INS1-cells): highly elevated
intrahepatic NAD+ [1]: increase intrahepatic NAD+
hepatic mitochondrial NAD+ levels [1]: only NRH increases mitochondrial NAD+ levels
stability in water (Stability in water): certified NRH stability
NR production in plasma ([2]; incubation in isolated plasma): did not lead to NR production
compound levels in plasma [2]: remained stable
generation of NAM in plasma [2]: NAM was not generated; also recorded: did not significantly alter NAM levels
NRH concentration in plasma ([3]; mice, after oral gavage): 11.16 ± 1.74 µM
administered compound in plasma ([3]; mouse, in vivo, po): detectable
NAD+ levels in NRK1KO derived primary hepatocytes [4]: not affected by NRK1 deficiency
generation of NMNH, NADH and NAD+ from NRH (adenosine kinase (AK); metabolomic analyses, upon inhibition of AK): fully blunted
NAD+ levels in kidney [5]: increased NAD+ levels
NAD+ levels in liver [5]: increased NAD+ levels
NAD+ levels in muscle [5]: increased NAD+ levels
NAD+ levels (3T3 fibroblasts): highly elevated
degradation to NAM [6]: did not degrade to NAM
capacity as extracellular NAD+ precursor under ENT blockage [9]: largely lost its capacity as an extracellular NAD+ precursor
effect on hepatic NAD+ levels [10]: more potent effect on hepatic NAD+ levels than NR
dependence of NAD+ increasing action on NAMPT (NAMPT): NAMPT-independent
NAD+ levels (C2C12 myotubes): highly elevated
NAM levels in circulation [7]: only a very mild increase
NR in circulation ([7]; mouse, in vivo, ip): much higher levels than those detected after NR injection itself
NRH in circulation ([7]; mouse, in vivo, ip): detectable in circulation
intracellular detection of NRH and NMNH ([11]; 5 minutes after treatment): could be detected intracellularly
intracellular NR and NMN ([11]; after treatment, compared with NR): increase in intracellular NR and NMN, greater than that triggered by NR itself
time to significant increase in NAD+ levels after treatment (AML12 hepatocytes; AML12 hepatocytes, FIG. 3): ≤ 5 min
ability to increase intracellular NAD+ (AML12 hepatocytes; AML12 hepatocytes, compared with NR): superior to that of NR
concentration at which NAD+ levels are significantly increased (AML12 hepatocytes; AML12 hepatocytes, dose-response, FIG. 2): 10 µM
fold higher NR concentration needed to reach similar increases in intracellular NAD+ (AML12 hepatocytes; NRH at 10 μM versus NR): 50 fold
maximal increase of intracellular NAD+ levels (AML12 hepatocytes; around the millimolar range): more than 10 fold
